Experimental data: ChEMBL document CHEMBL1133264, “Development of peptidyl alpha-keto-beta-aldehydes as new inhibitors of cathepsin L--comparisons of potency and selectivity profiles with cathepsin B” (Bioorg Med Chem Lett, 2000); call rule not given here

Tests used:
Cathepsin B = Cathepsin B (Bos taurus, UniProt P07688); test: Ability to block cathepsin B-catalyzed hydrolysis of the fluorogenic substrate Z-Arg-Arg-NHMec
Procathepsin L [1] = target: T1, Procathepsin L (Homo sapiens, UniProt P07711); test: Ability to block cathepsin L-catalyzed hydrolysis of the fluorogenic substrate Z-Phe-Arg-NHMec
T1 sequence (P07711 whole entry): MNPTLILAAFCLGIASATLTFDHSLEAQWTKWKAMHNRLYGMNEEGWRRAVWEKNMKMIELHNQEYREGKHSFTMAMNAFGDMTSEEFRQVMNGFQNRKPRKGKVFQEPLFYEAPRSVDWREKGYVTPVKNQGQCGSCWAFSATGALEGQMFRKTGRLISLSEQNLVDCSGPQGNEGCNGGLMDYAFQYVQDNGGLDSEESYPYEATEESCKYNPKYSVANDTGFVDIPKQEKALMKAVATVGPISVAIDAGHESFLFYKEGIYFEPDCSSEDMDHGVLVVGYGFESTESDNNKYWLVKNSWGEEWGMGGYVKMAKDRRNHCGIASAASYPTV

Procathepsin L [2] = target: T1, Procathepsin L; test: Ability to block cathepsin L-catalyzed hydrolysis of the fluorogenic substrate Z-Phe-Arg-NHMec, at 100 uM conc.; no inhibition

Ki (Cathepsin B) [nM]	Ki (Procathepsin L [1]) [nM]	Ki (Procathepsin L [2])	SMILES
1250	970	–	CC(=O)N[C@@H](CC(C)C)C(=O)N[C@@H](CC(C)C)C(=O)N[C@@H](CCCN=C(N)N)C(=O)C=O
214	0.6	–	CCCCOc1ccc(C[C@H](NC(=O)[C@H](Cc2ccccc2)NC(=O)OCc2ccccc2)C(=O)C=O)cc1
640	–	Not Active	CC(=O)N[C@@H](CCCN=C(N)N)C(=O)N[C@@H](CCCN=C(N)N)C(=O)C=O
40	90	–	N=C(N)NCCC[C@H](NC(=O)[C@H](Cc1ccccc1)C(=O)OCc1ccccc1)C(=O)C=O
